Test [1] has as its system PD-L1. Nature of the test: PD-L1 immunofluorescence after MeTC7 treatment, human ovarian carcinoma cells (SKOV-3, OVCAR-8, IGROV-1). As to conditions: MeTC7 125 nM, 4-6 hours. It counts as cell-based. How it is done:
(§1) Co-localization of VDR and PD-L1 was performed following the method in the Examples above. To determine the expression level of PD-L1 after MeTC7 treatment (125 nM), 10000 cells/well of SKOV-3, OVCAR-8 human ovarian carcinoma cells, IGROV-1 human ovarian carcinoma cells, and ID-8 murine ovarian cancer cells were seeded in an 8 well slide chamber (Nunc) and allowed to adhere overnight in FBS supplemented DMEM media. After 18 hours, the media was removed and the cells were treated with vehicle or MeTC7 supplemented DMEM serum free media for 4-6 hours. Cells maintained in DMEM medium were fixed with formalin solution for 15 mins, washed with PBST solution and blocked with Donkey serum 5% in PBST for 30 minutes. Cells were carefully washed and stained with PD-L1 primary antibody overnight in PBST. The cells were washed and stained with corresponding fluorescence linked secondary antibody for 1 hour. Cells were washed repeatedly with PBST (200 μL) five times. Casing on the chambers were removed and DAPI was applied in a mounting medium and images were recorded using an epi or confocal microscopy.

Test [2] deals with PD-L1. In words: PD-L1 immunofluorescence after MeTC7 treatment, ID-8 murine ovarian cancer cells. As to conditions: MeTC7 125 nM, 4-6 hours. The format is cell-based. Here is the method:
as §1

Test [3] has as its system PD-L1. Nature of the test: PD-L1 immunofluorescence after MeTC7 treatment, DAOY medulloblastoma cells. As to conditions: MeTC7 125 nM, confocal microscopy. The format is cell-based, human. Here is the method: FIG. 12 is a fluorescent micrograph depicting the effects of MeTC7 (125 nM) treatment on immune checkpoint PD-L1 expression in DAOY (human) medulloblastoma cells. Treated/naïve DAOY cells were analyzed by spinning disk confocal microscopy after staining with PD-L1 primary and suitable secondary antibodies.
as §1, with “Cells were washed repeatedly with PBST (200 μL) five times.” left out

Test [4] deals with PD-L1. In words: PD-L1 expression after MeTC7 treatment, melanoma cells. It counts as cell-based.
Another test deals with SKOV-3 cells. Nature of the test: Tumor size in SKOV-3 xenograft, cisplatin-resistant murine model of ovarian cancer. The format is in vivo. As to conditions: SKOV-3 xenograft nude mice; IP; oligos 7 mg/kg, cisplatin 10 mg/kg once a week; measured every 3 days. How it is done: Four to six week-old immunodeficient nude mice were maintained at a temperature of ˜22° C. and a relative humidity of ˜55%, with a 12 hour light/dark cycle. The mice used were NU/NU; strain code 088/homozygous, obtained from Charles River Laboratories, Wilmington, Mass. The inoculation of the mice began with culturing SKOV-3 cells to 80% confluence, washing the SKOV-3 cells in PBS twice, and harvesting the cells by trypsination. The harvested cells were then pooled in complete medium, washed in PBS twice, and 2×10^6 cells/inoculate were suspended in 0.1 ml of matrigel. This cell suspension was used to inoculate the mice subcutaneously in the flank of each mouse. Mice with developing tumors after two weeks were randomly assigned to experimental groups. Mice were treated intraperitoneally with either vehicle control (control group; 7 animals) or Antisense-1 (7 mg/kg bwt) or scrambled PTO (7 mg/kg bwt) for 7 days. In another arm mice were treated with cisplatin (10 mg/kg, once a week), or scrambled PTO (7 mg/kg, 5 times/week)+ cisplatin (10 mg/kg, IP, once a week) or Antisense-1 (7 mg/kg, IP, once a week)+ Cisplatin (10 mg/kg, IP, once a week). Mice were weighed and tumor size was measured using a digital caliper every 3 days.

A further test relates to PD-1. Nature of the test: RT-PCR of PD-1 in donor PBMCs incubated with recombinant HE4. As to conditions: HE4 5.4 nM, donor PMBCs, within 6 hours. The format is cell-based, human. How it is done: Ficoll-Paque density gradient centrifugation was used to isolate PBMC from heparinized venous blood. Unfractionated PBMC were suspended in serum free RPMI1640 medium. Then the cells were incubated with recombinant HE4 (5.4 nM) or vehicle for 6 hours. TRIzol reagent was used to isolate the total RNA, and the first strand cDNA was made by SuperScript III reverse transcriptase. RT-PCR for the cDNA was done with PD-1 or GAPDH (internal control) gene specific primers. The primer sequences used for PD-1 are F-[…] (SEQ ID NO:4); R-[…] SEQ ID NO:5). The primer sequences used for internal control (GAPDH) are F-AATCCCATCACCATCTTCC SEQ ID NO:6); R-gTCCTTCCACgATACCAAAg SEQ ID NO:7).

For the molecule `CC(C)CCC[C@@H](C)C1CC[C@H]2C34C=CC5(C[C@@H](OC(=O)CBr)CC[C@]5(C)[C@H]3CC[C@]12C)n1c(=O)n(C)c(=O)n14` (stereo partly drawn) [MeTC7], the PD-L1 expression result was “down regulate” in the test on PD-L1 [1], “down regulate” in the test on PD-L1 [2], “reduced PD-L1 expression” with PD-L1 [3] and “a similar effect was not found” in the test with PD-L1 [4].
With `N.N.[Cl][Pt][Cl]` [cisplatin], the “percent change in tumor size” value in the test on SKOV-3 cells is reported as “an increase in tumor size at least initially”.

B1: recombinant HE4: exogenous recombinant human epididymis protein 4 added to PBMCs (protein, UniProt Q14508 31-124, looked up)
WAP four-disulfide core …: EKTGVCPELQADQNCTQECVSDSECADNLKCCSAGCATFCSLPNDKEGSCPQVNINFPQLGLCRDQCQVDSQCPGQMKCCRNGCGKVSCVTPNF
Consider B1, for which the “increase in PD-1 expression (PD-1/GAPDH ratio)” value in the test with PD-1 came out at 77.7%.
